pIC50: −log10 of the molar value. In brackets after ≈: the same amount, converted by molar mass.
Assays:
[1] = tested on: Mycobacterium tuberculosis; assay: Antimycobacterial activity against Mycobacterium tuberculosis H37Ra ATCC 25177 incubated for 7 days by microplate alamar blue assay; format: functional; settings: H37Ra ATCC 25177, 168 h, time 7 day
[2] = Selectivity index, ratio of IC50 for African green monkey Vero cells to MIC for antitubercular activity against Mycobacterium tuberculosis H37Ra ATCC 25177; format: toxicity
[3] = tested on: Mycobacterium tuberculosis; assay: Bactericidal activity against Mycobacterium tuberculosis H37Ra ATCC 25177 assessed as ratio of MBC to MIC; format: functional
[4] = Inhibition of Mycobacterium tuberculosis Pantothenate Synthetase expressed in Escherichia coli BL21(DE3) cells using beta-alanine as substrate
[5] = tested on: Mycobacterium tuberculosis; assay: Antimycobacterial activity against Mycobacterium tuberculosis H37Rv incubated for 7 days by microplate alamar blue assay; format: functional; settings: 168 h, time 7 day
[6] = tested on: Mycobacterium tuberculosis; assay: Antimycobacterial activity against Mycobacterium tuberculosis by microplate alamar blue assay; format: functional
[7] = Cytotoxicity against African green monkey Vero cells after 72 hrs by cell titer glo luminescent cell viability assay; format: cell-based; settings: chlorocebus sabaeus
[8] = tested on: Mycobacterium tuberculosis; assay: Antimycobacterial activity against Mycobacterium tuberculosis H37Rv 27294 by microplate alamar blue assay; format: functional
[9] = tested on: Mycobacterium tuberculosis; assay: Antimycobacterial activity against Mycobacterium tuberculosis H37Rv assessed as bacterial growth inhibition at 6.25 ug/ml by BACTEC MGIT method relative to control; format: functional
[10] = tested on: Mycobacterium tuberculosis; assay: Antimycobacterial activity against Mycobacterium tuberculosis H37Rv assessed as growth inhibition at 12.5 ug/ml by BACTEC radiometric method relative to control; format: functional; settings: read-out: GI
[11] = tested on: Mycobacterium tuberculosis; assay: Antimycobacterial activity against Mycobacterium tuberculosis H37Rv assessed as bacterial inhibition at 25 ug/ml by microplate alamar blue assay relative to control; format: functional
[12] = tested on: Mycobacterium tuberculosis; assay: Antimycobacterial activity against Mycobacterium tuberculosis H37Rv assessed as inhibition of bacteria at 12.5 ug/ml by microplate alamar blue assay relative to control; format: functional
[13] = tested on: Mycolicibacterium smegmatis; assay: Antimycobacterial activity against Mycobacterium smegmatis ATCC 35797 incubated for 48 hrs by agar dilution method; format: functional
[14] = tested on: Mycobacterium tuberculosis; assay: Antimycobacterial activity against Mycobacterium tuberculosis H37Rv assessed as mycobacterial growth inhibition at 12.5 ug/ml relative to control; format: functional; settings: read-out: GI
[15] = tested on: Mycobacterium tuberculosis; assay: Antimycobacterial activity against Mycobacterium tuberculosis H37Rv ATCC 27294 assessed as growth inhibition at 12.5 ug/ml by microplate alamar blue assay relative to control; format: functional; settings: read-out: GI
[16] = tested on: Mycobacterium tuberculosis; assay: Antimycobacterial activity against Mycobacterium tuberculosis H37Rv assessed as growth inhibition at 6.25 ug/ml by BACTEC radiometric method relative to control; format: functional; settings: read-out: GI
[17] = tested on: Mycobacterium tuberculosis; assay: Antimycobacterial activity against Mycobacterium tuberculosis; format: functional
[18] = tested on: Mycobacterium tuberculosis; assay: Antimycobacterial activity against Mycobacterium tuberculosis H37Rv measured after 12 to 28 days by Lowenstein-Jensen method; format: functional; settings: time 12-28 day
[19] = tested on: Mycobacterium tuberculosis; assay: Antimycobacterial activity against Mycobacterium tuberculosis H37Rv incubated for 7 days by resazurin dye based assay; format: functional; settings: 168 h, time 7 day
[20] = tested on: Mycobacterium tuberculosis; assay: Antimycobacterial activity against Mycobacterium tuberculosis H37Rv ATCC 27294 by BACTEC radiometric method; format: functional
[21] = tested on: Mycobacterium tuberculosis; assay: Antimycobacterial activity against Mycobacterium tuberculosis H37Rv by Lowenstein-Jensen method; format: functional
[22] = tested on: Mycobacterium tuberculosis; assay: Antimycobacterial activity against Mycobacterium tuberculosis H37Ra ATCC 25177 measured on 8th to 12th day by XTT reduction menadione assay; format: functional; settings: time 8-12 day
[23] = tested on: Mycobacterium tuberculosis; assay: Antimycobacterial activity against Mycobacterium tuberculosis H37Ra ATCC 25177 measured on 12th day by XTT reduction menadione assay; format: functional; settings: H37Ra ATCC 25177, 288 h, time 12 day
[24] = tested on: Mycobacterium tuberculosis; assay: Antimycobacterial activity against Mycobacterium tuberculosis H37Rv assessed as growth inhibition at 50 ug/ml by Lowenstein-Jensen method relative to control; format: functional; settings: read-out: GI

For NC(=S)N/N=C/c1ccc(OC(=O)CC2SC(=O)NC2=O)c(Br)c1 (centres undefined), the MIC [1] was 0.031 µg/mL (≈ 0.0719 µM), the selectivity ratio [2] was > 10 and the Ratio [3] was 2.

With O=C(CCN1C(=O)/C(=C/c2ccc([N+](=O)[O-])cc2)SC1=S)NNC(=O)c1ccccc1 the pIC50 [4] was 6.43 and the MIC [5] was 1.71 µM (≈ 0.781 µg/mL).

For O=C(NN1C(=O)CSC1c1ccc([N+](=O)[O-])cc1)c1coc2ccc3ccccc3c12 (centres undefined), the MIC [6] was 50 µg/mL (≈ 115 µM).

Molecule CCN1C(=O)/C(=C/c2ccccc2F)S/C1=N/NC(=O)c1ccncc1 has a CC50 at 72 h [7] of 22.8 µg/mL (≈ 61.4 µM) and an IC90 [8] of 2.95 µg/mL (≈ 7.97 µM).

With Cc1nc2ccccc2c(=O)n1CCNC1=NC(=O)/C(=C/c2cccc(Cl)c2)S1 the inhibition at 6.25 µg/mL [9] was 99%.

Cc1cc(C)c2c(c1)C1(SCC(=O)N1c1ccccc1C(=O)O)C(=O)N2 (centres undefined) gave an inhibition of growth at 12.5 µg/mL [10] of 90%.

Work on Cc1nc2ccccc2c(=O)n1CCNC1=NC(=O)/C(=C/c2ccc([N+](=O)[O-])cc2)S1 yielded an inhibition at 6.25 µg/mL [9] of 99%.

For CCCCCCCCCCCCN1C(=O)C(CC(=O)O)SC12CCN(C(=O)C(N)Cc1ccccc1)CC2 (centres undefined), the inhibition at 25 µg/mL [11] was 97% and the inhibition at 12.5 µg/mL [12] was 94%.

With CCC1SCC(=O)N1NC(=O)c1ccncc1 (centres undefined) the MIC [13] was > 100 µg/mL.

Work on CC1SC(c2ccc(O)cc2)N(Nc2nc(-c3ccccc3)c(C#N)c(=O)n2C)C1=O (centres undefined) yielded an inhibition of growth at 12.5 µg/mL [14] of 44%.

Work on O=C(NN1C(=O)CSC1c1ccc(O)cc1)c1coc2ccc3ccccc3c12 (centres undefined) yielded an MIC [6] of 50 µg/mL (≈ 124 µM).

Work on O=C1CSC(c2c(-c3ccccc3)[nH]c3ccc(Cl)cc23)N1c1nc(-c2cc3cc(Br)ccc3oc2=O)cs1 (centres undefined) yielded an inhibition of growth at 12.5 µg/mL [15] of 80%.

With COc1ccc(C(=O)Nc2ccc(C(=O)NN3C(=O)CSC3c3ccc([N+](=O)[O-])o3)cc2)cc1 (centres undefined) the inhibition of growth at 6.25 µg/mL [16] was 98%.

Work on Cc1nc(/N=C2\C(=O)Nc3ccccc32)sc1C(=O)NN1C(=O)CSC1c1ccc(F)cc1 (centres undefined) yielded an MIC [17] of 0.78 µM (≈ 0.376 µg/mL).

Molecule CCN1C(=O)/C(=C/c2ccc(F)cc2)S/C1=N/NC(=O)c1ccncc1 has a CC50 at 72 h [7] of 9.69 µg/mL (≈ 26.2 µM) and an IC90 [8] of 2.95 µg/mL (≈ 7.97 µM).

For CCCCCCCC1SCC(=O)N1NC(=O)c1ccncc1 (centres undefined), the MIC [13] was > 25 µg/mL.

CCc1ccc(CCOc2ccc(/C=C3\SC(=S)N(CC(=O)Nc4nc5ccc(C)cc5s4)C3=O)cc2)nc1 showed an MIC [18] of 25 µg/mL (≈ 43.5 µM).

Molecule Cc1nc(/N=C2\C(=O)Nc3ccccc32)sc1C(=O)NN1C(=O)CSC1c1ccc(Cl)cc1 (centres undefined) has an MIC [17] of 0.78 µM (≈ 0.388 µg/mL).

With COc1cc(/C=N/NC(N)=S)ccc1OC(=O)/C=C1\SC(=O)NC1=O the MIC [1] was 0.031 µg/mL (≈ 0.0815 µM), the selectivity ratio [2] was > 10 and the Ratio [3] was 2.

In the case of O=C1C(CN2CCOCC2)SC(c2ccc(Cl)cc2)N1c1ccc(Cl)cc1 (centres undefined), the MIC [19] was 25 µg/mL (≈ 59.1 µM).

Molecule N#Cc1ccc(C2SCC(=O)N2NC(=O)c2[nH]c3ccc(F)cc3c2-c2ccccc2)cc1 (centres undefined) has an MIC [20] of 6.25 µg/mL (≈ 13.7 µM).

With COc1cc(C2SCC(=O)N2NC2=Nc3ccccc3Sc3ccccc32)cc(OC)c1OC (centres undefined) the MIC [21] was 125 µg/mL (≈ 253 µM).

Molecule Cc1cc(NS(=O)(=O)c2ccc(N3C(=O)CSC3c3ccc(C(F)(F)F)cc3)cc2)no1 (centres undefined) has an IC90 [22] of 0.43 µg/mL (≈ 0.889 µM).

In the case of Cc1ccc(N2C(=O)CSC23C(=O)Nc2ccc(C)cc23)cc1 (centres undefined), the inhibition of growth at 12.5 µg/mL [10] was 90%.

For O=C1CSC(c2ccc(OCc3cc4ccccc4n4nnnc34)cc2)N1c1ccc([N+](=O)[O-])cc1 (centres undefined), the MIC [23] was 20.3 µg/mL (≈ 40.8 µM).

COc1ccc(/C=C2\SC(=S)N(Cc3nnc(-c4cccnc4SCc4ccccc4)o3)C2=O)cc1 showed an inhibition of growth at 50 µg/mL [24] of 99%.

Cc1cc(NS(=O)(=O)c2ccc(N3C(=O)CSC3c3ccc(F)cc3)cc2)no1 (centres undefined) gave an IC90 [22] of 0.43 µg/mL (≈ 0.992 µM).

In the case of O=C(O)c1ccc(N2C(=O)CSC23C(=O)Nc2ccc(F)cc23)cc1O (centres undefined), the inhibition of growth at 12.5 µg/mL [10] was 98%.

With O=C(NN1C(=O)CSC1c1ccc([N+](=O)[O-])cc1)c1[nH]c2ccc(F)cc2c1-c1ccccc1 (centres undefined) the MIC [20] was 6.25 µg/mL (≈ 13.1 µM).

Work on CCCCCCCCCCCC1SCC(=O)N1NC(=O)c1ccncc1 (centres undefined) yielded an MIC [13] of 6 µg/mL (≈ 15.9 µM).

Work on CCCCCCCCCC1SCC(=O)N1NC(=O)c1ccncc1 (centres undefined) yielded an MIC [13] of 25 µg/mL (≈ 71.5 µM).

Source: ChEMBL document CHEMBL4813957, “Antitubercular properties of thiazolidin-4-ones - A review” (Eur J Med Chem, 2021)
